Earlier results on one compound are cited in patent publication US20230405025A1, “CANNABINOID-CONTAINING COMPOSITIONS AND USE FOR TREATING AND PREVENTING DISEASES” (priority 2020, published 2023).

In the series the test system is presbyopic patient.

Regarding `CC[C@@H]1C(=O)OC[C@@H]1Cc1cncn1C` [Pilocarpine, pilocarpine], where the note is “concentrations above 0.5%, side effects red eyes, ocular pain, brow ache, headache”, the Tolerability entry is recorded as “not tolerated”. The Distance vision result (concentrations effective enough to improve reading ability, eye rendered myopic (Gilmartin et al., 1995)) is recorded as “significant decrease in the eye's distance vision”. Also, where the note is “topical concentrations below 0.5%”, the “Effect on accommodation of the eye” value is listed as “minimal effect in the accommodation of the eye”.
